Test results as given in patent US11532406B2, “High specific activity preparation of F-18 tetrafluoroborate” (Mayo Foundation for Medical Education and Research, priority 2016, dated 2022).
Entries after “also recorded” stand apart in the source; their conditions may differ.

Assay: PET/CT imaging of ^18F-TFB in healthy participants (pharmacokinetics, biodistribution)
Assay type: in vivo, human
From the text: Approval of the study was obtained from the Mayo Clinic Institutional Review Board and all participants provided informed consent. Four male (36±14 y) and four female (35±8 y) healthy volunteers were enrolled in the study. Participants were excluded that had previous diagnosis of cancer or clinically significant cardiovascular, renal, pulmonary, metabolic, and endocrine (thyroid) diseases. Participants were not required to fast prior to the imaging study but instructed to remain well-hydrated.
The imaging protocol is illustrated in FIG. 13. After voiding of the bladder, participants were positioned in a GE 690XT PET/CT scanner (GE HealthCare, Waukesha, Wis.) in a supine position with the heart in the center of the axial field of view. Intravenous catheters were placed in both arms for radiotracer injection and blood sampling. Computed tomography scans of the thorax were initially acquired in the preparation for a dynamic PET data acquisition over the heart for the first 45 min following commencement of radiotracer administration. ^18F-TFB (333-407 MBq) was administered over 1 minute into one of the catheters. The frame sequence for initial dynamic PET acquisition was 15×4, 8×15, 4×30, and 8×300 seconds. Following the dynamic heart scan, the participants were allowed a break from the scanner, during which time voided their bladders. Two additional PET/CT scans, from the vertex of the skull to mid-thigh, were performed at 2 hours and 3.5 hours respectively. The last PET/CT scan was completed ˜4 h post-injection.
All PET scans images were reconstructed using 3D OSEM and time-of-flight reconstruction. Volumes of interest (VOI's) of organs were drawn using PMOD software (Ver. 3.5). Standardized Uptake Values (SUVs) normalized to body weight were then calculated for each VOI. Time-activity curves (TACs) were evaluated from the initial dynamic scan over the heart for left-ventricular blood pool, lung and liver regions.

[1] = representative participant, post-administration

PET/CT-derived distribution (SUV), Bone (females, 2 h post-injection): 0.74 ± 0.20 SUV
PET/CT-derived distribution (SUV), Brain (females, 2 h post-injection): 0.42 ± 0.15 SUV
PET/CT-derived distribution (SUV), Breast (females, 2 h post-injection): 2.8 ± 0.4 SUV
PET/CT-derived distribution (SUV), Gallbladder (females, 2 h post-injection): 3.7 ± 1.0 SUV
PET/CT-derived distribution (SUV), Intestines (females, 2 h post-injection): 5.0 ± 2.7 SUV
PET/CT-derived distribution (SUV), Kidney (females, 2 h post-injection): 5.6 ± 0.7 SUV
PET/CT-derived distribution (SUV), Liver (females, 2 h post-injection): 2.7 ± 0.5 SUV
PET/CT-derived distribution (SUV), Lung (females, 2 h post-injection): 1.2 ± 0.4 SUV
PET/CT-derived distribution (SUV), Muscle (females, 2 h post-injection): 0.65 ± 0.35 SUV
PET/CT-derived distribution (SUV), Myocardium (females, 2 h post-injection): 2.8 ± 0.5 SUV
PET/CT-derived distribution (SUV), Pancreas (females, 2 h post-injection): 3.1 ± 1.7 SUV
PET/CT-derived distribution (SUV), Parotid (females, 2 h post-injection): 20 ± 11 SUV
PET/CT-derived distribution (SUV), Spleen (females, 2 h post-injection): 4.3 ± 1.0 SUV
PET/CT-derived distribution (SUV), Stomach (females, 2 h post-injection): 72 ± 10 SUV
PET/CT-derived distribution (SUV), Thyroid (females, 2 h post-injection): 50 ± 11 SUV
PET/CT-derived distribution (SUV), Bone (females, 3.5 h post-injection): 1.3±0.9 SUV
PET/CT-derived distribution (SUV), Brain (females, 3.5 h post-injection): 0.61 ± 0.34 SUV
PET/CT-derived distribution (SUV), Breast (females, 3.5 h post-injection): 3.9 ± 1.4 SUV
PET/CT-derived distribution (SUV), Gallbladder (females, 3.5 h post-injection): 5.0 ± 1.6 SUV
PET/CT-derived distribution (SUV), Intestines (females, 3.5 h post-injection): 6.0 ± 3.1 SUV
PET/CT-derived distribution (SUV), Kidney (females, 3.5 h post-injection): 6.3 ± 2.4 SUV
PET/CT-derived distribution (SUV), Liver (females, 3.5 h post-injection): 3.5 ± 1.6 SUV
PET/CT-derived distribution (SUV), Lung (females, 3.5 h post-injection): 1.5 ± 0.8 SUV
PET/CT-derived distribution (SUV), Muscle (females, 3.5 h post-injection): 0.78 ± 0.54 SUV
PET/CT-derived distribution (SUV), Myocardium (females, 3.5 h post-injection): 3.8 ± 1.8 SUV
PET/CT-derived distribution (SUV), Pancreas (females, 3.5 h post-injection): 3.0 ± 1.2 SUV
PET/CT-derived distribution (SUV), Parotid (females, 3.5 h post-injection): 25 ± 15 SUV
PET/CT-derived distribution (SUV), Spleen (females, 3.5 h post-injection): 5.5 ± 2.8 SUV
PET/CT-derived distribution (SUV), Stomach (females, 3.5 h post-injection): 51 ± 18 SUV
PET/CT-derived distribution (SUV), Thyroid (females, 3.5 h post-injection): 58 ± 12 SUV
blood clearance of radioactivity (left-ventricular blood pool time-activity curve) (healthy participants): multiphasic; also recorded: multi-phasic
urinary clearance (healthy participants): prominent
PET/CT-derived distribution (SUV), Bone (males, 2 h post-injection): 0.80 ± 0.33 SUV
PET/CT-derived distribution (SUV), Brain (males, 2 h post-injection): 0.39 ± 0.14 SUV
PET/CT-derived distribution (SUV), Gallbladder (males, 2 h post-injection): 2.7 ± 1.5 SUV
PET/CT-derived distribution (SUV), Intestines (males, 2 h post-injection): 2.9 ± 1.0 SUV
PET/CT-derived distribution (SUV), Kidney (males, 2 h post-injection): 7.0 ± 2.5 SUV
PET/CT-derived distribution (SUV), Liver (males, 2 h post-injection): 2.3 ± 1.0 SUV
PET/CT-derived distribution (SUV), Lung (males, 2 h post-injection): 1.0 ± 0.4 SUV
PET/CT-derived distribution (SUV), Muscle (males, 2 h post-injection): 0.71 ± 0.31 SUV
PET/CT-derived distribution (SUV), Myocardium (males, 2 h post-injection): 3.2 ± 0.9 SUV
PET/CT-derived distribution (SUV), Pancreas (males, 2 h post-injection): 3.4 ± 0.7 SUV
PET/CT-derived distribution (SUV), Parotid (males, 2 h post-injection): 11 ± 9 SUV
PET/CT-derived distribution (SUV), Spleen (males, 2 h post-injection): 4.1 ± 1.2 SUV
PET/CT-derived distribution (SUV), Stomach (males, 2 h post-injection): 33 ± 15 SUV
PET/CT-derived distribution (SUV), Thyroid (males, 2 h post-injection): 55 ± 31 SUV
PET/CT-derived distribution (SUV), Bone (males, 3.5 h post-injection): 1.4±0.5 SUV
PET/CT-derived distribution (SUV), Brain (males, 3.5 h post-injection): 0.74 ± 0.26 SUV
PET/CT-derived distribution (SUV), Gallbladder (males, 3.5 h post-injection): 4.2 ± 1.7 SUV
PET/CT-derived distribution (SUV), Intestines (males, 3.5 h post-injection): 4.4 ± 1.0 SUV
PET/CT-derived distribution (SUV), Kidney (males, 3.5 h post-injection): 11 ± 3 SUV
PET/CT-derived distribution (SUV), Liver (males, 3.5 h post-injection): 3.6 ± 1.2 SUV
PET/CT-derived distribution (SUV), Lung (males, 3.5 h post-injection): 1.7 ± 0.6 SUV
PET/CT-derived distribution (SUV), Muscle (males, 3.5 h post-injection): 0.96 ± 0.31 SUV
PET/CT-derived distribution (SUV), Myocardium (males, 3.5 h post-injection): 5.0 ± 0.9 SUV
PET/CT-derived distribution (SUV), Pancreas (males, 3.5 h post-injection): 6.2 ± 2.1 SUV
PET/CT-derived distribution (SUV), Parotid (males, 3.5 h post-injection): 16 ± 13 SUV
PET/CT-derived distribution (SUV), Spleen (males, 3.5 h post-injection): 6.3 ± 1.1 SUV
PET/CT-derived distribution (SUV), Stomach (males, 3.5 h post-injection): 70 ± 32 SUV
PET/CT-derived distribution (SUV), Thyroid (males, 3.5 h post-injection): 82 ± 42 SUV
time of peak radioactivity concentration, LVBP [1]: ~1 min
time of peak radioactivity concentration, liver [1]: ~2 min
time of peak radioactivity concentration, lung [1]: ~1 min
Compound: F[B-](F)(F)[18F] [^18F-TFB, ^18F-tetrafluoroborate]
uptake in thyroid, stomach, salivary glands and kidney (whole-body PET/CT at 2 h post-injection): Robust uptake; also recorded: high uptakes
